Reference: patent publication US20200377568A1, “Novel IL-4-/IL-13-derived peptide compounds for the treatment or prevention of neurodegenerative or neuroinflammatory diseases” (Universitätsmedizin der Johannes Gutenberg-Universität Mainz, priority 2018, published 2020)
Entries after “also recorded” stand apart in the source; their conditions may differ.

Tests used:
[1] = test system: mouse embryonic fibroblasts (Mef); test: CellTiter-blue cell viability assay (ctb), fibroblasts; assay type: cell-based; conditions: Mef cells, increasing concentrations, FIG. 2A
Procedure: Toxicity was checked by subjecting mouse embryonic fibroblasts (Mef) and the hippocampal cell line HT22 to a CellTiter-blue cell viability assay (ctb).
Mouse embryonic fibroblasts (Mef) (Sigma-Aldrich) and hippocampal HT22 (ThermoScientific) cells were cultured according to the manufacturer's protocols. Ctb assays were performed according to the manufacturer's protocols (Promega).

[2] = test system: experimental autoimmune encephalomyelitis (EAE) mice; test: EAE clinical score, treatment during the chronic phase; assay type: in vivo, mouse; conditions: chronic phase of EAE, vs PBS
Procedure: To test whether Link4 has similar effects to IL-4 in vivo, two pilot experiments were performed. In the first experiment (FIG. 3A), B16 mice were subjected to EAE and treated with IL-4, Link4, Ph8 and PBS (n=6-7 animals per group) via lumbar intrathecal injection directly into the cerebrospinal fluid (CSF) every other day for 14 days, in the chronic phase of the disease starting from day 5 after the first disease peak (grey bar). […] For better clinical translation, the treatment was then switched to nasal treatment with IL-4 and Link4 (FIG. 3B; 2 pooled experiments, n=15-16 per group). Nasally applied treatments can enter the brain through the cribriform plate, where olfactory nerve fibers cross through the bone, resulting in a connection between the roof of the nasal cavity and the brain (C. F. Xiao, F. J. Davis, B. C. Chauhan, K. L. Viola, P. N. Lacor, P. T. Velasco, W. L. Klein, and N. B. Chauhan, Brain transit and ameliorative effects of intranasally delivered anti-amyloid-beta oligomer antibody in 5XFAD mice. J Alzheimers Dis 35, 777-788 (2013)). Again, both IL-4 and Link4 treatments were beneficial.
For active EAE, female 9-10-weeks-old C57BI6 mice were immunized as previously described (M. Paterka, J. O. Voss, J. Werr, E. Reuter, S. Franck, T. Leuenberger, J. Herz, H. Radbruch, T. Bopp, V. Siffrin, and F. Zipp, Dendritic cells tip the balance towards induction of regulatory T cells upon priming in experimental autoimmune encephalomyelitis. J Autoimmun 67, 108-114 (2017)) by subcutaneous injection of 200 μg myelin oligodendrocyte […] 35-55 (MOG35-55) mixed with complete Freund adjuvant (CFA). Following the MOG35-55 immunization 400 ng pertussis toxin (PTX) was administered intraperitoneally at the day of immunizaton and after 24 h. Clinical signs were scored using the following parameters:
Treatment with rIL-4 (1 μg, Peprotech), Ph8 (1 μg, custom synthesized, Schafer N), Link4 (1 μg, custom synthesized, Schafer N) or vehicle (PBS) was performed during the chronic phase of the disease models by lumbar intrathecal injection (R. Lu and A. Schmidtko, Direct intrathecal drug delivery in mice for detecting in vivo effects of cGMP on pain processing. Methods Mol Biol 1020, 215-221 (2013)) or nasal application of IL-4 and Link4 was performed according to published procedures (C. F. Xiao, F. J. Davis, B. C. Chauhan, K. L. Viola, P. N. Lacor, P. T. Velasco, W. L. Klein, and N. B. Chauhan, Brain transit and ameliorative effects of intranasally delivered anti-amyloid-beta oligomer antibody in SXFAD mice. J Alzheimers Dis 35, 777-788 (2013)). Mice were pre-trained to avoid stress and held at a 45 degree angle to apply IL-4 solution (1 μg, Peprotech) to the nostrils using a pipette tip.

[3] = test system: CD11b+ bone marrow-derived macrophages (BMDMs); test: Differentiation of bone marrow-derived macrophages; assay type: cell-based, mouse; conditions: different concentrations, FIG. 4A
Procedure: A-B: Effects of incubation with IL-4 and different concentrations of Link4 and Link13 on the differentiation of A: CD11b^+ bone marrow-derived macrophages (BMDMs) into F80^+CD206^+ cells, and B: CD4^+ T cells into Gata3^+ cells. C-D: FACS results for different populations of T cells and CD11b^+MHCII^+ monocytes/macrophages/microglia of immune cells isolated from C: spleen and D: central nervous system (CNS) of EAE mice treated with PBS, IL-4 or Link4.
In order to investigate whether Link4 and Link13 are able to modulate immune cells, in vitro assays were performed on bone marrow-derived macrophages (BDMBs) and on naïve T cells.
Murine BMDMs were isolated from adult C57BL/6 mice. The tibia and femur bones were flushed with sterile PBS and the bone marrow was collected in washing medium. After filtering the cell suspension trough a 100 μm nylon mesh, the cells were centrifuged (5 min, 550 g, 4° C.) and resuspended in mouse medium (10% FCS, 1% P/S, 1% L-glutamine, 0.1% β-mercaptoethanol, 1% HEPES in RPMI buffer). For the in vitro generation of BMDMs cells were plated in 6 well-plates and exposed to 20 ng/ml Macrophage […] (M-CSF) for 4 days. For the activation of the cells, Dexametason (5×10^−7M), LPS (10 μg/ml) and IL-4 (10 ng/ml) were added to the culture for the following 3 days.

[4] = test system: corticospinal tract axons; test: Analysis of axon swellings in spinal cords of EAE mice; assay type: in vivo, mouse; conditions: EAE mice treated during the chronic phase, FIG. 7A
Procedure: A: Histological analysis of corticospinal tract axons in spinal cords of EAE mice treated during the chronic phase of the disease.
EAE experiments were performed by immunizing YFP-H mice, that express yellow fluorescent protein in corticospinal neurons, with MOG35-55. Mice were treated with IL-4 or PBS as described above. At the last treatment day, the mice were sacrificed with an overdose of anaesthesia and transcardially perfused with 4% paraformaldehyde. Spinal cords were dissected and further processed for cryosectioning. YFP-labelled corticospinal tract axons were photographed using the Keyence BZ-9000 microscope. For quantification of axon swellings, thresholds were set in ImageJ so that stained pixels were highlighted. Thresholded swellings were counted using the ImageJ plug-in “particle analysis”.

With “RARSEIIGIGSKSIMQMDY (listed as Mus musculus) [Link4]” the “toxic effects on fibroblasts (cell viability)” value [1] was “no toxic effects”, the clinical score ([2]; lumbar intrathecal injection, 1 μg every other day for 14 days) was “significant improvement in the clinical score; also recorded: significant amelioration of the clinical score” and the clinical score ([2]; lumbar intrathecal injection, 1 μg every other day for 14 days, listed as mouse Link4) was “reducing disease symptoms”. The clinical score ([2]; nasal application) was “significant improvement in the clinical score; also recorded: beneficial”, the “differentiation of CD11b+ BMDMs into F80+CD206+ cells” value [3] was “did not occur” and the “number of axon swellings” value [4] was “significantly reduced”.
